Measured values taken from publication PMC9821961, “Ring-Modified Histidine-Containing Cationic Short Peptides Exhibit Anticryptococcal Activity by Cellular Disruption” (Molecules, 2022).
Converted amounts (≈) assume the structure as drawn. “And” between values parts separate entries of the source, which are not always exact repeats. Equal entries are not always repeated. Where two headings read alike, the source gives them in different places.

Tests used:
[1] = tested on: C. neoformans; experiment: microbe, parasite or virus in culture; type: cell-based, Cryptococcus neoformans; details: 48 h
How it was run: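 Peptides (DMSO stock) two-fold diluted in broth; fungi 10^3 CFU/mL, RPMI 1640/YPED, 30 °C, 48 h; bacteria 10^5 CFU/mL, Mueller Hinton, 37 °C, 24 h; OD600 → IC50, MIC. Strains: MTCC 3160, MTCC 439, MTCC 3019, NCCPF250316.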

[2] = tested on: C. albicans; experiment: microbe, parasite or virus in culture; type: cell-based, Candida albicans; details: 48 h
How it was run: (§1)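 Growth inhibition was measured by broth microdilution. MIC and IC50 were calculated from optical density at 600 nm after 48 h at 30 °C for Candida and Cryptococcus (10^3 CFU/mL, RPMI 1640 or YPED) and after 24 h at 37 °C for the Gram-positive bacteria (10^5 CFU/mL, Mueller Hinton).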

[3] = tested on: C. parapsilosis; experiment: microbe, parasite or virus in culture; type: cell-based, Candida parapsilosis; details: 48 h
How it was run: as §1

[4] = tested on: E. faecalis; experiment: microbe, parasite or virus in culture; type: cell-based, Enterococcus faecalis; details: 48 h
[5] = tested on: S. aureus; experiment: microbe, parasite or virus in culture; type: cell-based, Staphylococcus aureus; details: 48 h
Text: (§2) Microbial strains: Microbial strains were procured from National Culture Collection of Pathogenic Fungi (NCCPF) at the Postgraduate Institute of Medical Education & Research (PGIMER), Chandigarh and Microbial Type Culture Collection and Gene bank (MTCC) at the Institute of Microbial Technology (IMTECH), Chandigarh, India. Peptides were screened against five different strains of fungi: viz. Candida albicans (NCCPF400034), Candida glabrata (MTCC 3019), Candida parapsilosis (NCCPF 440002), Candida krusei (NCCPF 440002) and Cryptococcus neoformans (NCCPF250316), and five strains of bacteria: viz. Escherichia coli (MTCC 2961), Staphylococcus aureus (MTCC 3160), Enterococcus faecalis (MTCC 439), Streptococcus pyogenes (MTCC 442) and Pseudomonas aeruginosa (MTCC 3542).
(§3) Growth media: Antifungal susceptibility testing was carried out using standard broth microdilution assays as per the Clinical and Laboratory Standards Institute (CLSI) guidelines for fungi. RPMI 1640 (Sigma), yeast extract, peptone and dextrose (YPED, Himedia) were used as the incubation broths. The cells were diluted to a cell density of 10^3 colony forming unit (CFU/mL) and incubated at 30 °C for 48 h. Furthermore, Muller Hinton (Himedia) media was utilized for bacterial strains and antibacterial activity was evaluated per CLSI guidelines for bacteria. […] Amphotericin B (Himedia, India) and rifampicin (Himedia, India) were used as standard drugs for the evaluation of activity against all the fungal and bacterial strains, respectively.
(§4) The stock solutions of peptides (2 mg/mL) were prepared in DMSO. Specific amounts of peptide from stock solution were added to a 96-well microtiter plate containing 100 μL of growth media and then serially diluted two-fold. A further 100 μL of growth media containing microbial cells were added to each well and incubated at 30–37 °C for 24–48 h. The optical density (OD) was measured at 600 nm using a BioStack Ready (BioTek Instruments, Winooski, VT, USA) microplate reader to analyze microbial growth inhibition, and IC50 and MIC values were calculated. To visualize the growth and inhibition pattern, a solution of 3-(4,5-dimethylthiazol-2-yl)-2,5-diphenyltetrazolium bromide (MTT) in water was added to the plate and incubated for 2–3 h. MTT reacts with the mitochondrial dehydrogenases, which are present only in a viable cell, to give blue colored formazan crystals. Therefore, a darker color indicates a high number of viable cells; however, non-viable cells appear pale or colorless.

[6] = tested on: S. pyogens; experiment: microbe, parasite or virus in culture; type: cell-based, Streptococcus pyogenes; details: 48 h
[7] = tested on: E. coli; experiment: microbe, parasite or virus in culture; type: cell-based, Escherichia coli; details: 48 h
Text: as §2, §3, §4

[8] = tested on: C. neoformans cells; experiment: Internal cell morphology analysis by TEM (HRTEM, STEM); type: cell-based, Cryptococcus neoformans; details: at MIC, 12 h
Experimental: The samples were prepared in a similar manner to as mentioned in the procedure for SEM sample preparation, up until the dehydration of cells with increasing gradients of ethanol. The dehydrated samples were then embedded in resin which was prepared from an epoxy embedding medium kit (Sigma, 45359-1EA-F). Increasing gradients (10%, 20%, 30%, 50%, 70% and 90%) of resin were added to the samples followed by incubation for 1–2 h at room temperature after addition of each gradient. Undiluted resin (100%) was added to the sample and incubated for 24 h at 70 °C. Semi-thin and ultrathin sections were cut with an ultramicrotome (Ultramicotome Lecia EM UC6). The sections of samples were placed on a 3.05 mm diameter and 200 mesh copper grid and stained with uranyl acetate or lead acetate, before observation under the HRTEM (FEI Technai G2 F20, Eindhoven, The Netherlands) and analysis at 120 KV.

[9] = tested on: C. neoformans cells; experiment: CLSM FITC-labeled peptide uptake assay; type: cell-based, Cryptococcus neoformans; details: FITC-tagged peptide, 12 h
Experimental: After incubation, cells were harvested by centrifugation at 2000× g for 10 min at 4 °C and suspended in PBS and mounted on a slide for visualization under a confocal microscope with excitation and emission wavelengths of 488 nm and 515 nm, respectively.

[10] = tested on: C. neoformans (ATCC350) cells; experiment: CLSM DAPI uptake assay; type: cell-based, Cryptococcus neoformans; details: at MIC, 12 h, then DAPI
Experimental: After incubation, treated and untreated cells were centrifuged at 2000× g for 10 min at 4 °C and suspended in cold PBS and followed by 2–3 washings with PBS. The cells were then incubated with DAPI (3.01 μM) for 10 min at room temperature with constant shaking, harvested by centrifugation and suspended in PBS. Then, the fungal cells were examined using confocal microscopy (Olympus Fluoview™ FV1000 SPD; Olympus, Tokyo, Japan) with excitation at 350 nm and emission at 470 nm.

[11] = tested on: HEK 293
Experimental: (§5) The cells (50,000 cells/well) were seeded to the wells of the plate in Dulbecco’s Modified Eagle Medium (DMEM) supplemented with 10% fetal bovine serum at 37 °C overnight and incubated for 24 h to achieve confluency. Peptides at different concentrations of 50, 25, 12.5, 6.25, 3.12, 1.56 and 0.78 μg/mL were added to the cells in separate wells and incubated at 37 °C for 18 h. A further 20 µL MTT solution (5 mg/mL stock conc. in PBS) was added and the plate was incubated for another 3–4 h. To detect the viable cells that react with MTT to make formazan crystals, 120 μL of supernatant was removed and 100 μL DMSO was added to dissolve the crystals. Untreated cells and DMSO (10%) were used as negative and positive controls, respectively [37]. The percent viability of cells was calculated using equation:(2) % Cell viability=Av. Absorbance of treated cells/Av. Absorbance of control cells×100

[12] = tested on: Red blood cells (RBCs); details: for % Hemolysis HC10 / % Hemolysis HC50: red cells of human
Experimental: Human blood in 10% citrate phosphate dextrose was obtained from Government Hospital, Chandigarh, India. Red blood cells (RBCs) were harvested by spinning at 1000× g for 5 min followed by washing with PBS 3–5 times. The packed cell volume was obtained and utilized to make a 0.8% (v/v) suspension of RBCs in PBS. […] The plate was incubated at 37 °C for 60 min followed by centrifugation at 1000× g for 5 min at 25 °C. The supernatant (100 μL) was transferred to a fresh microtiter plate and absorbance was recorded at 414 nm (Varioskan LUX multimode microplate reader, Thermo Scientific, Waltham, MS, USA) to analyze RBC lysis. Untreated RBCs in PBS and lysed RBCs in 0.1% Triton X-100 were used as negative and positive controls, respectively [29]. Percent hemolysis was calculated using following equation [38]. (3) % Hemolysis=Absorbance of treated sample−Absorbance of negative control/Absorbance of positive control−Absorbance of negative control×100

[13] = tested on: Cryptococcal cells; details: for MIC Alone: cryptococcal cells, agent alone
[14] = in vitro; details: human, HeLa cells
Experimental: as §5

[15] = tested on: C. neoformans cells; experiment: Time kill assay; details: time-kill profile over 24 h

SMILES | MIC [1] [µg/mL] | IC50 [2] [µg/mL] | MIC [2] [µg/mL] | IC50 [3] [µg/mL] | MIC [3] [µg/mL] | IC50 [4] [µg/mL] | MIC [4] [µg/mL] | IC50 [5] [µg/mL] | MIC [5] [µg/mL] | IC50 [6] [µg/mL] | MIC [6] [µg/mL] | IC50 [7] [µg/mL] | MIC [7] [µg/mL] | Internal morphology of treated cells (HRTEM) [8] | Morphology of treated cells (STEM) [8] | Fluorescence of cells incubated with FITC-labeled peptide (CLSM) [9] | DAPI fluorescence of treated cells (CLSM) [10] | Cytotoxic nature [11] | Hemolytic behavior [12] | % Hemolysis HC10 [12] [µg/mL] | other results
COC(=O)[C@H](Cc1ncn(Cc2cc(C(C)(C)C)cc(C(C)(C)C)c2)c1I)NC(=O)[C@@H](N)Cc1c[nH]c2ccccc12 [10d, Trp-His[1-(3,5-di-tert-butylbenzyl)-5-iodo]-OMe] | 4.01 (≈ 5.87 µM) | >35.2 | >64.0 | >35.2 | >64.0 | 17.6 (≈ 25.7 µM) | 32.0 (≈ 46.8 µM) | 17.6 (≈ 25.7 µM) | 32.0 (≈ 46.8 µM) | >35.2 | >64.0 | 17.6 (≈ 25.7 µM) | 32.0 (≈ 46.8 µM) | complete lysis of the cell membrane | highly shrunken cells with irregular cell membranes | prominent green fluorescence | fragmented bright blue fluorescence | non-cytotoxic | non-hemolytic | 50.53 | IC50 [1]: 2.20 µg/mL (≈ 3.22 µM); % Hemolysis HC50 [12]: >100 µg/mL; Fold Decrease in MIC ([13]; combination 10d + Amp B): 16; MIC In Combination ([13]; combination 10d + Amp B): 0.25 µg/mL and 0.250 µg/mL; FICI ([13]; combination 10d + Flu): 0.19; MIC In Combination ([13]; combination 10d + Flu): 0.501 µg/mL; MIC Alone [13]: 4.01 µg/mL (≈ 5.87 µM); CC50 at 18 h [14]: > 100 µg/mL; Time after which growth/CFUs of cryptococcal cells dropped or were inhibited [15]: 12 h
COC(=O)[C@H](Cc1ncn(Cc2ccccc2I)c1I)NC(=O)[C@@H](N)Cc1c[nH]c2ccccc12 [10o, Trp-His[1-(2-iodobenzyl)-5-iodo]-OMe] | 4.59 (≈ 6.58 µM) | >35.2 | >64.0 | >35.2 | >64.0 | 17.6 (≈ 25.2 µM) | 32.0 (≈ 45.9 µM) | >35.2 | >64.0 | >35.2 | >64.0 | >35.2 | >64.0 | cell membrane was completely damaged | highly deformed and shrunken | prominent green fluorescence | fragmented bright blue fluorescence | non-cytotoxic | non-hemolytic | 52.17 | % Hemolysis HC50 [12]: >100 µg/mL; MIC In Combination ([13]; combination 10o + Amp B): 0.287 µg/mL; Effect ([13]; combination 10o + Flu): Additive; Fold Decrease in MIC ([13]; combination 10o + Flu): 1.5; MIC In Combination ([13]; combination 10o + Flu): 2.999 µg/mL; MIC Alone [13]: 4.59 µg/mL (≈ 6.58 µM); CC50 at 18 h [14]: > 100 µg/mL; Time after which growth/CFUs of cryptococcal cells dropped or were inhibited [15]: 12 h
